Results reported in ChEMBL document CHEMBL1201862, “PubChem BioAssay data set” (2004).
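Results reflect a 48-hour exposure of cells in 96-well plates to compound at five concentrations. Abbreviation: GI50, concentration required for 50% inhibition of growth.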 Calls of active or inactive are those of the source. No stated cut-off is given here; in the data, active = GI50 up to about 1.1 µM and inactive = higher.

Experiments:
Assay in all cases: NCI anticancer screen, dose series, 48 h
786-0 = tested on: 786-0
A498 = tested on: A498
A549 = tested on: A549
ACHN = tested on: ACHN
BT-549 = tested on: BT-549
CAKI-1 = tested on: CAKI-1
CCRF-CEM = tested on: CCRF-CEM
COLO 205 = tested on: COLO 205
DU-145 = tested on: DU-145
EKVX = tested on: EKVX
HCC 2998 = tested on: HCC 2998
HCT-116 = tested on: HCT-116
HCT-15 = tested on: HCT-15
HL-60 = tested on: HL-60
HOP-62 = tested on: HOP-62
HOP-92 = tested on: HOP-92
HT-29 = tested on: HT-29
Hs-578T = tested on: Hs-578T
IGROV-1 = tested on: IGROV-1
K562 = tested on: K562
KM12 = tested on: KM12
LOX IMVI = tested on: LOX IMVI
M14 = tested on: M14
MCF7 = tested on: MCF7
MDA-MB-231 = tested on: MDA-MB-231
MDA-MB-435 = tested on: MDA-MB-435
MDA-N = tested on: MDA-N
MOLT-4 = tested on: MOLT-4
Malme-3M = tested on: Malme-3M
NCI-H226 = tested on: NCI-H226
NCI-H23 = tested on: NCI-H23
NCI-H460 = tested on: NCI-H460
NCI-H522 = tested on: NCI-H522
NCI/ADR-RES = tested on: NCI/ADR-RES
OVCAR-3 = tested on: OVCAR-3
OVCAR-4 = tested on: OVCAR-4
OVCAR-5 = tested on: OVCAR-5
OVCAR-8 = tested on: OVCAR-8
PC-3 = tested on: PC-3
RXF 393 = tested on: RXF 393
SF-268 = tested on: SF-268
SF-295 = tested on: SF-295
SF-539 = tested on: SF-539
SK-MEL-28 = tested on: SK-MEL-28
SK-MEL-2 = tested on: SK-MEL-2
SK-MEL-5 = tested on: SK-MEL-5
SK-OV-3 = tested on: SK-OV-3
SN12C = tested on: SN12C
SNB-19 = tested on: SNB-19
SNB-75 = tested on: SNB-75
SW-620 = tested on: SW-620
T47D = tested on: T47D
TK-10 = tested on: TK-10
U-251 = tested on: U-251
UACC-257 = tested on: UACC-257
UACC-62 = tested on: UACC-62
UO-31 = tested on: UO-31
RPMI-8226 = tested on: RPMI-8226

Structure (SMILES): CC(C)(C)OC(=O)NC(CSCc1ccc(C(=O)c2ccccc2)cc1)C(=O)N1CCN(CCCCN2c3ccccc3Sc3cc(N=[N+]=[N-])ccc32)CC1 (stereo not given)
- GI50 (786-0): > 100 µM (inactive)
- GI50 (A498): > 100 µM (inactive)
- GI50 (A549): > 100 µM (inactive)
- GI50 (ACHN): > 100 µM (inactive)
- GI50 (BT-549): > 100 µM (inactive)
- GI50 (CAKI-1): > 100 µM (inactive)
- GI50 (CCRF-CEM): > 100 µM (inactive)
- GI50 (COLO 205): > 100 µM (inactive)
- GI50 (DU-145): > 100 µM (inactive)
- GI50 (EKVX): > 100 µM (inactive)
- GI50 (HCC 2998): > 100 µM (inactive)
- GI50 (HCT-116): > 100 µM (inactive)
- GI50 (HCT-15): > 100 µM
- GI50 (HL-60): > 100 µM (inactive)
- GI50 (HOP-62): > 100 µM (inactive)
- GI50 (HOP-92): > 100 µM (inactive)
- GI50 (HT-29): > 100 µM (inactive)
- GI50 (Hs-578T): > 100 µM (inactive)
- GI50 (IGROV-1): > 100 µM (inactive)
- GI50 (K562): > 100 µM (inactive)
- GI50 (KM12): > 100 µM (inactive)
- GI50 (LOX IMVI): > 100 µM (inactive)
- GI50 (M14): > 100 µM (inactive)
- GI50 (MCF7): > 100 µM (inactive)
- GI50 (MDA-MB-231): > 100 µM (inactive)
- GI50 (MDA-MB-435): > 100 µM (inactive)
- GI50 (MDA-N): > 100 µM (inactive)
- GI50 (MOLT-4): > 100 µM (inactive)
- GI50 (Malme-3M): > 100 µM (inactive)
- GI50 (NCI-H226): > 100 µM (inactive)
- GI50 (NCI-H23): > 100 µM (inactive)
- GI50 (NCI-H460): > 100 µM (inactive)
- GI50 (NCI-H522): > 100 µM (inactive)
- GI50 (NCI/ADR-RES): > 100 µM (inactive)
- GI50 (OVCAR-3): > 100 µM (inactive)
- GI50 (OVCAR-4): > 100 µM (inactive)
- GI50 (OVCAR-5): > 100 µM (inactive)
- GI50 (OVCAR-8): > 100 µM (inactive)
- GI50 (PC-3): > 100 µM (inactive)
- GI50 (RXF 393): > 100 µM (inactive)
- GI50 (SF-268): > 100 µM (inactive)
- GI50 (SF-295): > 100 µM (inactive)
- GI50 (SF-539): > 100 µM (inactive)
- GI50 (SK-MEL-28): > 100 µM (inactive)
- GI50 (SK-MEL-2): > 100 µM (inactive)
- GI50 (SK-MEL-5): > 100 µM (inactive)
- GI50 (SK-OV-3): > 100 µM (inactive)
- GI50 (SN12C): > 100 µM (inactive)
- GI50 (SNB-19): > 100 µM (inactive)
- GI50 (SNB-75): 58.7 µM (inactive)
- GI50 (SW-620): > 100 µM (inactive)
- GI50 (T47D): > 100 µM (inactive)
- GI50 (TK-10): > 100 µM (inactive)
- GI50 (U-251): > 100 µM (inactive)
- GI50 (UACC-257): > 100 µM (inactive)
- GI50 (UACC-62): > 100 µM (inactive)
- GI50 (UO-31): > 100 µM (inactive)

Structure (SMILES): O=C1c2c(Br)sc(Br)c2C(NC(=O)C(F)(F)F)C1O (stereo not given)
- GI50 (786-0): 19.3 µM (inactive)
- GI50 (A498): > 100 µM (inactive)
- GI50 (A549): 25.3 µM (inactive)
- GI50 (ACHN): 29.5 µM (inactive)
- GI50 (BT-549): 19.4 µM (inactive)
- GI50 (CAKI-1): 17.5 µM (inactive)
- GI50 (CCRF-CEM): 26.3 µM (inactive)
- GI50 (COLO 205): 16.8 µM (inactive)
- GI50 (DU-145): 20.5 µM (inactive)
- GI50 (EKVX): 19.5 µM (inactive)
- GI50 (HCC 2998): 18.2 µM (inactive)
- GI50 (HCT-116): 18.1 µM (inactive)
- GI50 (HCT-15): 16.7 µM
- GI50 (HL-60): 8.39 µM (inactive)
- GI50 (HOP-92): 18.8 µM (inactive)
- GI50 (HT-29): 24.7 µM (inactive)
- GI50 (Hs-578T): 32.8 µM (inactive)
- GI50 (IGROV-1): 20.2 µM (inactive)
- GI50 (K562): 12.1 µM (inactive)
- GI50 (KM12): 30.1 µM (inactive)
- GI50 (LOX IMVI): 21.8 µM (inactive)
- GI50 (M14): 20.6 µM (inactive)
- GI50 (MCF7): 22.8 µM (inactive)
- GI50 (MDA-MB-231): 19.2 µM (inactive)
- GI50 (MDA-MB-435): 23.5 µM (inactive)
- GI50 (MDA-N): 19.1 µM (inactive)
- GI50 (MOLT-4): 31.3 µM (inactive)
- GI50 (Malme-3M): 20.2 µM (inactive)
- GI50 (NCI-H226): 29.5 µM (inactive)
- GI50 (NCI-H23): 22.6 µM (inactive)
- GI50 (NCI-H460): 20.4 µM (inactive)
- GI50 (NCI-H522): 13.3 µM (inactive)
- GI50 (NCI/ADR-RES): 29.1 µM (inactive)
- GI50 (OVCAR-3): 19.3 µM (inactive)
- GI50 (OVCAR-4): 19.9 µM (inactive)
- GI50 (OVCAR-5): 19.7 µM (inactive)
- GI50 (OVCAR-8): 20.3 µM (inactive)
- GI50 (PC-3): 26.1 µM (inactive)
- GI50 (RXF 393): 13.3 µM (inactive)
- GI50 (SF-268): 34 µM (inactive)
- GI50 (SF-295): 18.7 µM (inactive)
- GI50 (SF-539): 15.7 µM (inactive)
- GI50 (SK-MEL-28): 21.8 µM (inactive)
- GI50 (SK-MEL-2): 16.7 µM (inactive)
- GI50 (SK-MEL-5): 19.5 µM (inactive)
- GI50 (SK-OV-3): 19.3 µM (inactive)
- GI50 (SN12C): 18.7 µM (inactive)
- GI50 (SNB-19): 24.4 µM (inactive)
- GI50 (SNB-75): 27.9 µM (inactive)
- GI50 (SW-620): 17.8 µM (inactive)
- GI50 (T47D): 24.4 µM (inactive)
- GI50 (TK-10): > 100 µM (inactive)
- GI50 (U-251): 19.5 µM (inactive)
- GI50 (UACC-257): 19.3 µM (inactive)
- GI50 (UACC-62): 20.3 µM (inactive)
- GI50 (UO-31): 22.4 µM (inactive)

Structure (SMILES): C/C(CC(O)(C(F)(F)F)C(F)(F)F)=N\N
- GI50 (786-0): > 10 µM (inactive)
- GI50 (A498): > 10 µM (inactive)
- GI50 (A549): > 10 µM (inactive)
- GI50 (ACHN): > 10 µM (inactive)
- GI50 (BT-549): > 10 µM (inactive)
- GI50 (CAKI-1): > 10 µM (inactive)
- GI50 (CCRF-CEM): > 10 µM (inactive)
- GI50 (COLO 205): > 10 µM (inactive)
- GI50 (DU-145): > 10 µM (inactive)
- GI50 (EKVX): > 10 µM (inactive)
- GI50 (HCC 2998): > 10 µM (inactive)
- GI50 (HCT-116): > 10 µM (inactive)
- GI50 (HCT-15): > 10 µM
- GI50 (HL-60): > 10 µM (inactive)
- GI50 (HOP-62): > 10 µM (inactive)
- GI50 (HOP-92): > 10 µM (inactive)
- GI50 (HT-29): > 10 µM (inactive)
- GI50 (Hs-578T): > 10 µM (inactive)
- GI50 (IGROV-1): > 10 µM (inactive)
- GI50 (K562): > 10 µM (inactive)
- GI50 (KM12): > 10 µM (inactive)
- GI50 (LOX IMVI): > 10 µM (inactive)
- GI50 (M14): > 10 µM (inactive)
- GI50 (MCF7): > 10 µM (inactive)
- GI50 (MDA-MB-231): > 10 µM (inactive)
- GI50 (MDA-MB-435): > 10 µM (inactive)
- GI50 (MDA-N): > 10 µM (inactive)
- GI50 (MOLT-4): > 10 µM (inactive)
- GI50 (Malme-3M): > 10 µM (inactive)
- GI50 (NCI-H226): > 10 µM (inactive)
- GI50 (NCI-H23): > 10 µM (inactive)
- GI50 (NCI-H460): > 10 µM (inactive)
- GI50 (NCI-H522): > 10 µM (inactive)
- GI50 (NCI/ADR-RES): > 10 µM (inactive)
- GI50 (OVCAR-3): > 10 µM (inactive)
- GI50 (OVCAR-4): > 10 µM (inactive)
- GI50 (OVCAR-5): > 10 µM (inactive)
- GI50 (OVCAR-8): > 10 µM (inactive)
- GI50 (PC-3): > 10 µM (inactive)
- GI50 (RPMI-8226): > 10 µM (inactive)
- GI50 (RXF 393): > 10 µM (inactive)
- GI50 (SF-268): > 10 µM (inactive)
- GI50 (SF-295): > 10 µM (inactive)
- GI50 (SF-539): > 10 µM (inactive)
- GI50 (SK-MEL-28): > 10 µM (inactive)
- GI50 (SK-MEL-2): > 10 µM (inactive)
- GI50 (SK-MEL-5): > 10 µM (inactive)
- GI50 (SK-OV-3): > 10 µM (inactive)
- GI50 (SN12C): > 10 µM (inactive)
- GI50 (SNB-19): > 10 µM (inactive)
- GI50 (SNB-75): > 10 µM (inactive)
- GI50 (SW-620): > 10 µM (inactive)
- GI50 (T47D): > 10 µM (inactive)
- GI50 (TK-10): > 10 µM (inactive)
- GI50 (U-251): > 10 µM (inactive)
- GI50 (UACC-257): > 10 µM (inactive)
- GI50 (UACC-62): > 10 µM (inactive)
